Here are results for 8 molecules from US8492310B2, “Herbicidal compositions containing benzoylpyrazole compounds” (priority 2008, dated 2013).

Common to all, as to type: in vivo
Experiment [1] concerns crabgrass (Digitaria sanguinalis L.). In words: Foliar treatment pot test, visual growth inhibition rate, crabgrass (DS). The source says:
(§1) When the herbicidal activity in a case where two active ingredients are combined, is larger than the simple sum of the respective herbicidal activities of the two active ingredients (the expected activity), it is called a synergistic effect. The activity expected by the combination of two active ingredients can be calculated as follows (Colby S. R., “Weed”, vol. 15, p. 20-22, 1967). E=α+β−(α×β÷100) where
(§2) Upland field soil was put into a 1/1,000,000 hectare pot, and seeds of various plants (barnyardgrass (Echinochloa crus-qalli L.), crabgrass (Digitaria sanguinalis L.), giant foxtail (Setaria faberi Herrm.), velvetleaf (Abutilon theophrasti MEDIC.) and prickly sida (Sida spinosa L.)) were sown. When the respective plants reached predetermined leaf stage, herbicidal compositions in predetermined amounts were diluted with water in an amount corresponding to 300 L/ha and applied for foliar treatment by a small sprayer.
(§3) Further, in accordance with the above Colby's formula, the growth inhibition rate (calculated value) was calculated. In Tables, with respect to the compound Q, Compound Nos. in Table 1 are described, and with respect to other herbicidal compounds, common names are described. Further, in Tables, barnyardgrass is represented by “EC”, crabgrass by “DS”, giant foxtail by “SF”, velvetleaf by “AT”, and prickly sida by “SS”.

Experiment [2] concerns velvetleaf (Abutilon theophrasti MEDIC.). The experiment is described as follows: Foliar treatment pot test, visual growth inhibition rate, velvetleaf (AT).
Source text: as §1, §2, §3

The subject of experiment [3] is prickly sida (Sida spinosa L.). In words: Foliar treatment pot test, visual growth inhibition rate, prickly sida (SS). To be noted: 3.0-3.3 leaf stage.
Source text: as §1, §2, §3

Setting [4] is: Digitaria sanguinalis, foliar, 168 h, 3.5-5.0 leaf stage, 7 DAT, read-out: Growth inhibition rate (%) of DS Measured value.
[5] abbreviates: Abutilon theophrasti, foliar, 168 h, 2.3-3.5 leaf stage, 7 DAT, read-out: Growth inhibition rate (%) of AT Measured value.
The mark [6] stands for this setting: Digitaria sanguinalis, foliar, 480 h, 4.5-5.2 leaf stage, 20 DAT, read-out: Growth inhibition rate (%) of DS Measured value.
[7] abbreviates: Abutilon theophrasti, foliar, 480 h, 4.2-4.3 leaf stage, 20 DAT, read-out: Growth inhibition rate (%) of AT Measured value.
The mark [8] stands for this setting: Digitaria sanguinalis, foliar, 552 h, 4.0-5.1 leaf stage, 23 DAT, 300 g/ha, read-out: Growth inhibition rate (%) of DS Measured value.
[9] abbreviates: Abutilon theophrasti, foliar, 552 h, 3.0-3.5 leaf stage, 23 DAT, 300 g/ha, read-out: Growth inhibition rate (%) of AT Measured value.

Where two headings read alike, the source gives them in different places.

For `CCOCN(C(=O)CCl)c1c(C)cccc1CC` [Acetochlor, acetochlor], the inhibition at 63 g/ha in experiment [1] (Digitaria sanguinalis, foliar, 168 h, 3.5-5.0 leaf stage, 7 DAT, 63 g/ha, read-out: Growth inhibition rate (%) of DS Measured value) is 0%; in experiment [2] (Abutilon theophrasti, foliar, 168 h, 2.3-3.5 leaf stage, 7 DAT, 63 g/ha, read-out: Growth inhibition rate (%) of AT Measured value), 0%. Moreover, the inhibition at 125 g/ha in experiment [1] (setting [4]) and in experiment [2] (setting [5]) was 0% each time. For the same molecule, the inhibition at 250 g/ha in experiment [1] (setting [4]) and in experiment [2] (setting [5]) was 0% throughout. Besides, the inhibition at 500 g/ha amounted to 0% in experiment [1] (Digitaria sanguinalis, foliar, 168 h, 3.5-5.0 leaf stage, 7 DAT, 500 g/ha, read-out: Growth inhibition rate (%) of DS Measured value) and 10% in experiment [2] (Abutilon theophrasti, foliar, 168 h, 2.3-3.5 leaf stage, 7 DAT, 500 g/ha, read-out: Growth inhibition rate (%) of AT Measured value). Also, the inhibition at 750 g/ha in experiment [1] (Digitaria sanguinalis, foliar, 168 h, 3.5-5.0 leaf stage, 7 DAT, 750 g/ha, read-out: Growth inhibition rate (%) of DS Measured value) came out at 10%; in experiment [2] (Abutilon theophrasti, foliar, 168 h, 2.3-3.5 leaf stage, 7 DAT, 750 g/ha, read-out: Growth inhibition rate (%) of AT Measured value) it was 0%. Further, the inhibition at 150 g/ha was determined as 0% in experiment [1] (Digitaria sanguinalis, foliar, 336 h, 4.0-5.0 leaf stage, 14 DAT, 150 g/ha, read-out: Growth inhibition rate (%) of DS Measured value); 0% in experiment [1] (Digitaria sanguinalis, foliar, 504 h, 4.0-5.1 leaf stage, 21 DAT, 150 g/ha, read-out: Growth inhibition rate (%) of DS Measured value); 0% in experiment [2] (Abutilon theophrasti, foliar, 336 h, 3.0-4.0 leaf stage, 14 DAT, 150 g/ha, read-out: Growth inhibition rate (%) of AT Measured value). For the same molecule, the inhibition at 400 g/ha in experiment [1] (Digitaria sanguinalis, foliar, 504 h, 3.5-4.3 leaf stage, 21 DAT, 400 g/ha, read-out: Growth inhibition rate (%) of DS Measured value) is 0%; in experiment [2] (Abutilon theophrasti, foliar, 504 h, 3.0-3.8 leaf stage, 21 DAT, 400 g/ha, read-out: Growth inhibition rate (%) of AT Measured value) it was 0%; in experiment [3] (Sida spinosa, foliar, 336 h, 14 DAT, 400 g/ha, read-out: Growth inhibition rate (%) of SS Measured value), 10%. In addition, the inhibition at 300 g/ha in experiment [2] (Abutilon theophrasti, foliar, 480 h, 3.1-3.4 leaf stage, 20 DAT, 300 g/ha, read-out: Growth inhibition rate (%) of AT Measured value) was determined as 0%. Moreover, the inhibition at 100 g/ha in experiment [3] (Sida spinosa, foliar, 336 h, 14 DAT, 100 g/ha, read-out: Growth inhibition rate (%) of SS Measured value) worked out at 0%. Further, the inhibition at 200 g/ha in experiment [3] (Sida spinosa, foliar, 336 h, 14 DAT, 200 g/ha, read-out: Growth inhibition rate (%) of SS Measured value) was 0%. Moreover, the inhibition at 800 g/ha in experiment [3] (Sida spinosa, foliar, 336 h, 14 DAT, 800 g/ha, read-out: Growth inhibition rate (%) of SS Measured value) was determined as 30%.

Take `CCc1cccc(C)c1N(C(=O)CCl)[C@@H](C)COC` [S-Metolachlor, S-metolachlor]: the “Growth inhibition rate (%) of DS Measured value” in experiment [1] (3.5-4.3 leaf stage, 21 DAT, 400 g/ha) is recorded as 0%; in experiment [1] (4.0-5.0 leaf stage, 14 DAT, 150 g/ha) it was 0%; in experiment [1] (4.0-5.1 leaf stage, 21 DAT, 300 g/ha) it was 0%; in experiment [1] (5.0-6.0 leaf stage, 14 DAT, 800 g/ha), 0%. Further, the “Growth inhibition rate (%) of AT Measured value” in experiment [2] (3.0-3.5 leaf stage, 21 DAT, 300 g/ha) amounted to 0%; in experiment [2] (3.0-3.8 leaf stage, 21 DAT, 400 g/ha) it was 0%; in experiment [2] (3.0-4.0 leaf stage, 14 DAT, 150 g/ha), 0%; in experiment [2] (4.6-5.3 leaf stage, 14 DAT, 1200 g/ha), 0%. Further, the “Growth inhibition rate (%) of SS Measured value” in experiment [3] (21 DAT, 800 g/ha) turned out to be 20%.

Consider `CCC(CC)Nc1c([N+](=O)[O-])cc(C)c(C)c1[N+](=O)[O-]` [Pendimethalin, pendimethalin], for which the inhibition at 62.5 g/ha in experiment [1] (Digitaria sanguinalis, foliar, 480 h, 4.5-5.2 leaf stage, 20 DAT, 62.5 g/ha, read-out: Growth inhibition rate (%) of DS Measured value) stood at 0%. In experiment [1] (setting [6]), the inhibition at 125 g/ha amounted to 0% and the inhibition at 250 g/ha turned out to be 0%. Further, the inhibition at 100 g/ha in experiment [2] (Abutilon theophrasti, foliar, 312 h, 3.3-4.2 leaf stage, 13 DAT, 100 g/ha, read-out: Growth inhibition rate (%) of AT Measured value) was found to be 25%. In addition, in experiment [2] (setting [7]), the inhibition at 125 g/ha turned out to be 20% and the inhibition at 250 g/ha is 38%.

Turning to `CC(C)N(C(=O)COc1nnc(C(F)(F)F)s1)c1ccc(F)cc1` [Flufenacet], the inhibition at 200 g/ha in experiment [1] (Digitaria sanguinalis, foliar, 480 h, 5.0-5.2 leaf stage, 20 DAT, 200 g/ha, read-out: Growth inhibition rate (%) of DS Measured value) came out at 0%. The inhibition at 300 g/ha in experiment [1] (setting [8]) and in experiment [2] (setting [9]) was 0% in each case.

For the molecule `CCOCCN(C(=O)CCl)C(=C(C)C)c1ccccc1` [Pethoxamid, pethoxamid], the “Growth inhibition rate (%) of DS Measured value” in experiment [1] (3.6-3.8 leaf stage, 20 DAT, 100 g/ha) was 0%; in experiment [1] (3.6-3.8 leaf stage, 20 DAT, 200 g/ha), 0%; in experiment [1] (3.6-3.8 leaf stage, 20 DAT, 400 g/ha), 0%; in experiment [1] (4.4-5.0 leaf stage, 13 DAT, 200 g/ha) it was 0%. The “Growth inhibition rate (%) of AT Measured value” in experiment [2] (3.3-4.2 leaf stage, 13 DAT, 200 g/ha) is reported as 0%.

`O=C(O)c1nc(Cl)ccc1Cl` [Clopyralid, clopyralid]: the inhibition at 300 g/ha in experiment [1] (Digitaria sanguinalis, foliar, 528 h, 4.0-5.0 leaf stage, 22 DAT, 300 g/ha, read-out: Growth inhibition rate (%) of DS Measured value) was determined as 0%; in experiment [1] (setting [8]), 0%; in experiment [2] (Abutilon theophrasti, foliar, 528 h, 4.1-4.5 leaf stage, 22 DAT, 300 g/ha, read-out: Growth inhibition rate (%) of AT Measured value), 40%; in experiment [2] (setting [9]) it was 35%.

For the molecule `N.O=C(O)CNCP(=O)(O)O` [Glyphosate-ammonium, glyphosate-ammonium], in experiment [1] (5.0-5.5 leaf stage, 21 DAT, 100 g/ha), the “Growth inhibition rate (%) of DS Measured value” turned out to be 10%. Moreover, the “Growth inhibition rate (%) of AT Measured value” in experiment [2] (3.5-4.3 leaf stage, 14 DAT, 100 g/ha) came to 30%; in experiment [2] (3.5-4.3 leaf stage, 21 DAT, 200 g/ha) it was 15%.

For `Cn1nc(C(F)(F)F)c(CS(=O)(=O)C2=NOC(C)(C)C2)c1OC(F)F` [Pyroxasulfone, pyroxasulfone], the inhibition at 50 g/ha amounted to 0% in experiment [1] (Digitaria sanguinalis, foliar, 312 h, 4.4-5.0 leaf stage, 13 DAT, read-out: Growth inhibition rate (%) of DS Measured value); 10% in experiment [1] (Digitaria sanguinalis, foliar, 504 h, 4.0-5.0 leaf stage, 21 DAT, read-out: Growth inhibition rate (%) of DS Measured value); 5% in experiment [2] (Abutilon theophrasti, foliar, 312 h, 3.3-4.2 leaf stage, 13 DAT, read-out: Growth inhibition rate (%) of AT Measured value); 0% in experiment [2] (Abutilon theophrasti, foliar, 336 h, 3.0-4.0 leaf stage, 14 DAT, read-out: Growth inhibition rate (%) of AT Measured value); 0% in experiment [2] (Abutilon theophrasti, foliar, 504 h, 3.0-3.5 leaf stage, 21 DAT, read-out: Growth inhibition rate (%) of AT Measured value). Moreover, the inhibition at 100 g/ha in experiment [1] (Digitaria sanguinalis, foliar, 336 h, 4.0-5.0 leaf stage, 14 DAT, 100 g/ha, read-out: Growth inhibition rate (%) of DS Measured value) was 5%.
